Here are results for 15 molecules from patent publication US6677368B2, “4-aryl substituted indolinones” (Sugen, Inc., priority 2000, dated 2004).

The term IC50 denotes the concentration needed to halve the response being measured.

What all share (format): biochemical
Experiment [1] concerns the target FGFR1 (Homo sapiens, UniProt P11362). Nature of the experiment: FGFR1 bioassay (ELISA, in vitro kinase activity). The note with it: purified GST-FGFR1, poly(Glu-Tyr) substrate. On the procedure:
This assay is used to measure the in vitro kinase activity of FGF1-R in an ELISA assay.
1. Costar 96-well ELISA plates (Corning Catalog #3369).
2. Poly(Glu-Tyr) (Sigma Catalog #P0275).
4. 50 mM Hepes Buffer Solution.
5. Blocking Buffer (5% BSA/PBS).
6. Purified GST-FGFR1 (SUGEN, Inc.)
7. Kinase Dilution Buffer. Mix 500 μl 1M Hepes (GIBCO), 20 μl 5% BSA/PBS, 10 μl 100 mM sodium orthovanadate and 50 μl 5M NaCl.
9. ATP/MnCl2 phosphorylation mix: mix 20 μL ATP, 400 μL 1M MnCl2 and 9.56 ml dH2O.
10. NUNC 96-well V bottom polypropylene plates (Applied Scientific Catalog #AS-72092).
12. 0.05% TBST Add 500 μL TWEEN to 1 liter TBS.
13. Rabbit polyclonal anti-phosphotyrosine serum (SUGEN, Inc.).
14. Goat anti-rabbit IgG peroxidase conjugate (Biosource, Catalog #ALI0404).
1. Coat Costar 96 well ELISA plates with 1 μg per well Poly(Glu-Tyr) in 100 μl PBS. Store overnight at 4° C.
2. Wash coated plates once with PBS.
3. Add 150 μL of 5%BSA/PBS Blocking Buffer to each well. Incubate, with shaking, for 1 hr at room temperature.
4. Wash plate 2× with PBS, then once with 50 mM Hepes. Pat plates on a paper towel to remove excess liquid and bubbles.
5. Add 25 μL of 0.4 mM test compound in 4% DMSO or 4% DMSO alone (controls) to plate.
6. Dilute purified GST-FGFR1 in Kinase Dilution Buffer (5 ng kinase/50 μl KDB/well).
7. Add 50 μL of diluted kinase to each well.
8. Start kinase reaction by adding 25 μl/well of freshly prepared ATP/Mn++ (0.4 ml 1M MnCl2, 40 μL 10 mM ATP, 9.56 ml dH2O), freshly prepared).
9. Stop reaction with 25 μL of 0.5M EDTA.
10. Wash plate 4× with fresh TBST.
11. Make up Antibody Dilution Buffer: For 50 ml, mix 5 ml of 5% BSA, 250 μl of 5% milk and 50 μl of 100 mM sodium vanadate, bring to final volume with 0.05% TBST.
12. Add 100 μl per well of anti-phosphotyrosine (1:10000 dilution in ADB). Incubate, with shaking for 1 hr. at room temperature.
14. Add 100 μl per well of Biosource Goat anti-rabbit IgG peroxidase conjugate (1:6000 dilution in ADB). Incubate, with shaking for 1 hr. at room temperature.
15. Wash as in step 10 and then with PBS to remove bubbles and excess TWEEN.
16. Add 100 μl of ABTS/H2O2 solution to each well.
17. Incubate, with shaking, for 10 to 20 minutes. Remove any bubbles.
18. Read assay on Dynatech MR7000 ELISA reader: test filter at 410 nM, reference filter at 630 nM.
Background: ELISA stands for enzyme-linked immunosorbent assay.

Experiment [2] concerns the target EGFR (Homo sapiens, UniProt P00533). The experiment in a line: EGFR kinase inhibition.
In experiment [3] the target is T1, PDGFR (UniProt P09619).
T1 construct: PDGFR-β expressing NIH 3T3 cell lysate (SUGEN, Inc.)
The experiment in a line: PDGFR bioassay (ELISA, in vitro kinase activity). The note with it: PDGFR-β expressing NIH 3T3 cell lysate, 20 μM ATP. Here is the method:
This assay is used to the in vitro kinase activity of PDGFR in an ELISA assay.
1. Corning 96-well ELISA plates
2. 28D4C10 monoclonal anti-PDGFR antibody (SUGEN, Inc.).
5. Blocking Buffer (same as for EGFR bioassay).
6. PDGFR-β expressing NIH 3T3 cell lysate (SUGEN, Inc.).
11. Kinase buffer phosphorylation mix: for 10 ml, mix 250 μl 1M TRIS, 200 μl 5M NaCl, 100 μl 1M MnCl2 and 501l 100 mM Triton X-100 in enough dH2O to make 10 ml.
12. NUNC 96-well V bottom polypropylene plates.
14. Rabbit polyclonal anti-phosphotyrosine serum (SUGEN, Inc.).
15. Goat anti-rabbit IgG peroxidase conjugate (Biosource Cat. No. ALI0404).
17. Hydrogen peroxide, 30% solution.
1. Coat Corning 96 well ELISA plates with […] 28D4C 10 in 100 μl PBS per well, hold overnight at 4° C.
2. Remove unbound 28D4C10 from wells by inverting plate to remove liquid. Wash 1× with dH2O. Pat the plate on a paper towel to remove excess liquid.
3. Add 150 μl of Blocking Buffer to each well. Incubate for 30 min. at room temperature with shaking.
4. Wash plate 3× with deionized water, then once with TBST. Pat plate on a paper towel to remove excess liquid and bubbles.
5. Dilute lysate in HNTG (10 μg lysate/100 μl HNTG).
6. Add 100 μl of diluted lysate to each well. Shake at room temperature for 60 min.
7. Wash plates as described in Step 4.
8. Add 80 μl working kinase buffer mix to ELISA plate containing captured PDGFR.
9. Dilute test compound 1:10 in TBS in 96-well polypropylene plates.
10. Add 10 μl diluted test compound to -ELISA plate. To control wells, add 10 μl TBS+10% DMSO. Incubate with shaking for 30 minutes at room temperature.
11. Add 10 μl ATP directly to all wells except negative control well (final well volume should be approximately 100 μl with 20 μM ATP in each well.) Incubate 30 minutes with shaking.
12. Stop reaction by adding 10 μl of EDTA solution to each well.
13. Wash 4× with deionized water, twice with TBST.
14. Add 100 μl anti-phosphotyrosine (1:3000 dilution in TBST) per well.
Incubate with shaking for 30-45 min. at room temperature.
16. Add 100 μl Biosource Goat anti-rabbit IgG peroxidase conjugate (1:2000 dilution in TBST) to each well. Incubate with shaking for 30 min. at room temperature.
18. Add 100 μl of ABTS/H2O2 solution to each well.
19. Incubate 10 to 30 minutes with shaking. Remove any bubbles.
20. If necessary stop reaction with the addition of 100 μl 0.2 M HCl per well.
21. Read assay on Dynatech MR7000 ELISA reader with test filter at 410 nM and reference filter at 630 nM.

Sequence of FGFR1 (P11362 22-822, species assumed): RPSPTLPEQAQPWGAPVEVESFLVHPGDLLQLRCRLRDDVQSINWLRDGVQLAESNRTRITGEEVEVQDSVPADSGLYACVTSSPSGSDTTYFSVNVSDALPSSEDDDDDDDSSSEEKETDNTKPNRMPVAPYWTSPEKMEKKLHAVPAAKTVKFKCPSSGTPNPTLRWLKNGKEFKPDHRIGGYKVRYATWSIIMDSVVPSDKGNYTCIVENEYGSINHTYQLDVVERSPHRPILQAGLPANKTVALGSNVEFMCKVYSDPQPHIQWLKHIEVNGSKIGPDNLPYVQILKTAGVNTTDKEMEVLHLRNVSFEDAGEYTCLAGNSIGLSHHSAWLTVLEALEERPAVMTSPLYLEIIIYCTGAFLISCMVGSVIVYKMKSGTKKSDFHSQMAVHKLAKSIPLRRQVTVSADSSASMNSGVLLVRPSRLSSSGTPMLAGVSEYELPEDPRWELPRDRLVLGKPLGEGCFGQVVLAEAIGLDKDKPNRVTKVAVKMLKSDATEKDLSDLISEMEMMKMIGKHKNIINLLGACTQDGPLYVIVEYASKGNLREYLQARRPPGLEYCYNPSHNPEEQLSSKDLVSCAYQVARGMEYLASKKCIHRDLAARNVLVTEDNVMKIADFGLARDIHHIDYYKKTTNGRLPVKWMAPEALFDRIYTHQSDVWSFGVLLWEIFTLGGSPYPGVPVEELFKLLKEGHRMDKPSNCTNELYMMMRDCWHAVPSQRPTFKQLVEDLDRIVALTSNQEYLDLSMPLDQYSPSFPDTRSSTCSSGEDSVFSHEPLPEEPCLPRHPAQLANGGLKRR
Sequence of EGFR (P00533 25-1210, species assumed): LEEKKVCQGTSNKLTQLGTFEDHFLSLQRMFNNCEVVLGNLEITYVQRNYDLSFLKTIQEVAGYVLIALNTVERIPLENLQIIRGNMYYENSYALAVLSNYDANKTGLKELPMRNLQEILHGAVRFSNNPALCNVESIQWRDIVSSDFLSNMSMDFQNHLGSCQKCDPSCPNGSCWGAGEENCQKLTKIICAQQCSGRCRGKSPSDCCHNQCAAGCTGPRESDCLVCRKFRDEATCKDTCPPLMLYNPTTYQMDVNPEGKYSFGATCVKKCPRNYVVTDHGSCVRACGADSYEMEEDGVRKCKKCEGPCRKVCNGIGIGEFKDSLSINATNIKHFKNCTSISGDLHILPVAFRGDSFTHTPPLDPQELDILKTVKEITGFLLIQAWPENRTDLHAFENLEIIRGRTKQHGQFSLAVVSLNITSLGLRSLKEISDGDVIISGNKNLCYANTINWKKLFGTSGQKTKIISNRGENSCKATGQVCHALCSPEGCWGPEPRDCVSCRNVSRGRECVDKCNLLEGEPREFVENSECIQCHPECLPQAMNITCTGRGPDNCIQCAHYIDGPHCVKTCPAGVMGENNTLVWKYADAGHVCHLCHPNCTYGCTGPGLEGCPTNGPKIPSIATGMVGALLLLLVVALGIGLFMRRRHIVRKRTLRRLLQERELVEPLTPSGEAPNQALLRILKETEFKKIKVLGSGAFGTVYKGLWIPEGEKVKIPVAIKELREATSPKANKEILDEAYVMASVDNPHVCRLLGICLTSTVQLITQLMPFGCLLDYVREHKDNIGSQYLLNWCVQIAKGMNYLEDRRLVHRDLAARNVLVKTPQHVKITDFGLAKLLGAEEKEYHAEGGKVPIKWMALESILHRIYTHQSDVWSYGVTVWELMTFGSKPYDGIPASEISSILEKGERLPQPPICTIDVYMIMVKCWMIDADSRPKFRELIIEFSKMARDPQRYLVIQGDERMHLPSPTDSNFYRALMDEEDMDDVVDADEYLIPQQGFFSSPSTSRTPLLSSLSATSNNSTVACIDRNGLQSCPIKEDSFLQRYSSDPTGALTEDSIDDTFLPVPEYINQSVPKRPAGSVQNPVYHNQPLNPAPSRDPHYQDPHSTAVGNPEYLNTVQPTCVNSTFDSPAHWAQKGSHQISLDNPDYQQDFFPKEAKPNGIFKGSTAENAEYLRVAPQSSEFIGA

For the molecule `CCOC(=O)c1c(C)[nH]c(/C=C2\C(=O)Nc3cccc(-c4cccc(F)c4)c32)c1CCCN1CCN(C)CC1` [Example 18, 5-[4-(3-Fluoro-phenyl)-2-oxo-1,2-dihydro-indol-3-ylidenemethyl]-2-methyl-4-[3-(4-methyl-piperazin-1-yl)-propyl]-1H-pyrrole-3-carboxylic Acid Ethyl Ester], the figures for the 50% inhibitory concentration (IC50) in experiment [1], in experiment [2] and in experiment [3] were 1190 nM, 9330 nM and 10400 nM, respectively.
For `Cc1[nH]c(/C=C2\C(=O)Nc3cccc(-c4ccc(Br)cc4)c32)c(C)c1C(=O)NCCN(C(C)C)C(C)C` [Example 60, 5-[4-(4-Bromo-phenyl)-2-oxo-1,2-dihydro-indol-3-ylidenemethyl]-2,4-dimethyl-1H-pyrrole-3-carboxylic Acid (2-Diisopropylamino-ethyl)-amide], the IC50 in experiment [1] worked out at 150 nM; in experiment [2], 7010 nM; in experiment [3], 2370 nM.
Regarding `CCN(CC)CCNC(=O)c1c(C)[nH]c(/C=C2\C(=O)Nc3cccc(-c4cccc(F)c4)c32)c1C` [Example 13, 5-[4-(3-Fluoro-phenyl)-2-oxo-1,2-dihydro-indol-3-ylidenemethyl]-2,4-dimethyl-1H-pyrrole-3-carboxylic Acid (2-Diethylamino-ethyl)-amide], the IC50 is under 9.1 nM in experiment [1], 13100 nM in experiment [2] and 2320 nM in experiment [3].
On the same counts, the results for `CCN(CC)CCNC(=O)c1c(C)[nH]c(/C=C2\C(=O)Nc3cccc(-c4cccc(Br)c4)c32)c1C` [Example 63, 5-[4-(3-Bromo-phenyl)-2-oxo-1,2-dihydro-indol-3-ylidenemethyl]-2,4-dimethyl-1H-pyrrole-3-carboxylic Acid (2-Diethylamino-ethyl)-amide] are 240 nM, 15000 nM and 2180 nM.
Taken in the same sequence, the figures for `COc1ccc(-c2cccc3c2/C(=C/c2[nH]c(C)c(C(=O)NCCN4CCCC4)c2C)C(=O)N3)cc1` [Example 38, 5-[4-(4-Methoxy-phenyl)-2-oxo-1,2-dihydro-indol-3-ylidenemethyl]-2,4-dimethyl-1H-pyrrole-3-carboxylic Acid (2-Pyrrolidin-1-yl-ethyl)-amide] were 80 nM, 16400 nM and 2190 nM.
In the case of `Cc1[nH]c(/C=C2\C(=O)Nc3cccc(-c4ccc(F)cc4)c32)c(C)c1C(=O)NCCN1CCCC1` [Example 6, 5-[4-(4-Fluoro-phenyl)-2-oxo-1,2-dihydro-indol-3-ylidenemethyl]-2,4-dimethyl-1H-pyrrole-3-carboxylic Acid (2-Pyrrolidin-1-yl-ethyl)-amide], the results for the IC50 in experiment [1], in experiment [2] and in experiment [3] were 57 nM, 16200 nM and 2950 nM, respectively.
For `Cc1cc(C(=O)N2C[C@@H](C)N[C@@H](C)C2)c(/C=C2\C(=O)Nc3cccc(-c4ccc(Cl)cc4)c32)[nH]1` [Example 27], the figures for the 50% inhibitory concentration (IC50) in experiment [1] and in experiment [3] were 630 nM and over 20000 nM, respectively.
Taken in the same sequence, the figures for `Cc1[nH]c(/C=C2\C(=O)Nc3cccc(-c4ccc(Br)cc4)c32)c(C)c1C(=O)N1C[C@@H](C)N[C@@H](C)C1` [Example 57, 4-(4-Bromo-phenyl)-3-[4-[(cis)-3,5-dimethyl-piperazine-1-carbonyl)-3,5-dimethyl-1H-pyrrol-2-ylmethylene]-1,3-dihydro-indol-2-one] were 260 nM and over 20000 nM.
On the same counts, the results for `Cc1[nH]c(/C=C2\C(=O)Nc3cccc(-c4ccc(F)cc4)c32)c(C)c1C(=O)N1CCN(C)CC1` [Example 4, 3-[3,5-Dimethyl-4-(4-methyl-piperazine-1-carbonyl)-1H-pyrrol-2-ylmethylene]-4-(4-fluoro-phenyl)-1,3-dihydro-indol-2-one] are 740 nM and 14600 nM.
On the same counts, the results for `Cc1[nH]c(/C=C2\C(=O)Nc3cccc(-c4ccc(Br)cc4)c32)c(C)c1C(=O)N1CCN(C)CC1` [Example 53] are 1150 nM and over 20000 nM.
With `CCN(CC)CCNC(=O)c1c[nH]c(/C=C2\C(=O)Nc3cccc(-c4ccc(Br)cc4)c32)c1C` [Example 61, 5-[4-(4-Bromo-phenyl)-2-oxo-1,2-dihydro-indol-3-ylidenemethyl]-4-methyl-1H-pyrrole-3-carboxylic Acid (2-Diethylamino-ethyl)-amide], the results for the IC50 in experiment [1] and in experiment [3] were 21 nM and 9120 nM, respectively.
On the same counts, the results for `Cc1cc(C(=O)N2CC[C@@H](N(C)C)C2)c(/C=C2\C(=O)Nc3cccc(-c4ccc(Cl)cc4)c32)[nH]1` [Example 25, 4-(4-Chloro-phenyl)-3-[3-((R)-3-dimethylamino-pyrrolidine-1-carbonyl)-5-methyl-1H-pyrrol-2-ylmethylene]-1,3-dihydro-indol-2-one] are 560 nM and 11700 nM.
On the same counts, the results for `COc1cccc(-c2cccc3c2/C(=C/c2[nH]c(C)c(C(=O)NCCn4ccnn4)c2C)C(=O)N3)c1` [Example 48, 5-[4-(3-Methoxy-phenyl)-2-oxo-1,2-dihydro-indol-3-ylidenemethyl]-2,4-dimethyl-1H-pyrrole-3-carboxylic Acid (2-[1,2,3]Triazol-1-yl-ethyl)-amide] are 600 nM and 8390 nM.
On the same counts, the results for `Cc1cc(C(=O)NCCN2CCCC2)c(/C=C2\C(=O)Nc3cccc(-c4ccc(Br)cc4)c32)[nH]1` [Example 58, 2-[4-(4-Bromo-phenyl)-2-oxo-1,2-dihydro-indol-3-ylidenemethyl]-5-methyl-1H-pyrrole-3-carboxylic Acid (2-Pyrrolidin-1-yl-ethyl)-amide] are 250 nM and 16100 nM.
For the molecule `COc1cccc(-c2cccc3c2/C(=C/c2[nH]c(C)c(C(=O)NCCN(C(C)C)C(C)C)c2C)C(=O)N3)c1` [Example 52, 5-[4-(3-Methoxy-phenyl)-2-oxo-1,2-dihydro-indol-3-ylidenemethyl]-2,4-dimethyl-1H-pyrrole-3-carboxylic Acid (2-Diisopropylamino-ethyl)-amide], the figures for the IC50 in experiment [1] and in experiment [3] were 35 nM and 1540 nM, respectively.
